Structures can show the parent of a compound that is named as a salt.
Row | melting point | SMILES
1 | 99 to 101 °C | COc1ccc(N2CC=C(c3cccc(Cl)c3)C2=O)cc1OCCN1CCC(C)CC1.Cl
2 | 207 to 209 °C | COc1ccc(N2CC=C(c3ccc(F)cc3)C2=O)cc1OCCN1CCCCC1 (as salt: hydrochloride)
